Assay results reported in patent US12448655B2, “Antibiotic susceptibility of microorganisms and related methods and systems” (CALIFORNIA INSTITUTE OF TECHNOLOGY, priority 2017, dated 2025).

Tests used:
[1] = test system: Neisseria gonorrhoeae; assay: Minimum inhibitory concentrations (MICs) of Neisseria gonorrhoeae clinical isolates; type: cell-based
Procedure: Isolates and agar-dilution MIC testing. Isolates were provided by the University of Washington Neisseria Reference Laboratory and the Centers for Disease Control (CDC) Antibiotic Resistance Isolate Bank Neisseria gonorrhoeae panel (SINuca-Table). MICs of the CDC AR Isolate Bank are reported by the CDC [10], and MIC of all other isolates were determined by agar dilution according to the Clinical and Laboratory Standards Institute (CLSI) guidelines.

[2] = test system: Neisseria gonorrhoeae; assay: AST by inaccessible DNA, 1 incubation step with Triton X-100 and DNaseI, qPCR (Example 1); type: cell-based
Procedure: An antibiotic susceptibility test can be performed with methods herein described comprising 15-minute co-incubation of the sample with antibiotics and an enhancing treatment followed by cell lysis, and detection of differences in amounts of detected DNA between the antibiotic-susceptible and a corresponding control but not in antibiotic-resistant NG isolates with respect to a corresponding control.
For each isolate, two incubation tubes were prepared in 2 mL purple cap tubes (VWR Cat #89004-298), following the indication in table x below, titled “Antibiotic Exposure per 500 μL”. Add Triton X (enhancer), DNaseI (Cat: M0303L) (degrader), NaHCO3 (conditioner).
The antibiotic incubation/exposure was performed on a heat-shake block fit to 2 mL purple cap tubes (VWR Cat #89004-298). The particular shake-block was measured with a thermocouple to ensure the temperature inside the tubes with 500 μL of media is 37° C. (settings 38° C. and 1000 rpm shaking), qPCR was used for NA amplification
Extraction was performed following “DEB Extraction” description in the general methods using Eppendorf tubes. Vortex samples briefly (2 seconds) and centrifuge before transferring 10 μL of the sample to 90 μL of the extraction buffer. • 9. Optionally, continue incubation of the treated and untreated samples for a control of the antibiotic efficacy over >15 minute exposures
The “qPCR” description in the general methods was followed. All DEB-extracted DNA were quantified using a primer mix=(10 µM forward and reverse) targeting N. gonorrhoeae porA gene. Samples were run in qPCR triplicates (10 μL reactions) at an annealing temperature 62° C. The primers target the porA gene. • 11. Data analysis is performed on the raw cq measurements obtained from the qPCR instrument

[3] = test system: Neisseria gonorrhoeae; assay: Two-step aAST with surfactant (CHAPS) only in the secondary exposure, qPCR CT ratio (Example 11); type: cell-based; conditions: 1 μg/mL ceftriaxone 15 min, then 10 mM CHAPS with DNaseI 5 min
Procedure: This example was performed using a two-step exposure in which the first step is exposure to a beta-lactam antibiotic and the second step is a 1:1 dilution into DNaseI treatment in the presence of a surfactant.
The inclusion of the surfactant enhances the accessible nucleic acids made available by short (15 minute) b-lactam exposure by adding a second incubation step with a surfactant. Differences in DNA accessibility between the unexposed and exposed tubes are enhanced. DNaseI is used to degrade the DNA made accessible by beta-lactam treatment and the surfactant.
FIG. 23 describes the layout of this experiment. An NG isolate is incubated with a beta-lactam antibiotic for 15 minutes, followed by a DNaseI digestion step in the presence of surfactant. At each time point, DNaseI will be added to degrade the accessible DNA, then the DNaseI will be inactivated simultaneously with the lysis of the remaining cells. The quantified nucleic acids represent those inaccessible from the DNaseI throughout the exposure protocol. • 1. Provide incubation media containing enhancer, accessibility, with and without an antibiotic for each isolate
The samples were mixed before transferring 25 μL of the sample to the prepared secondary incubation (enhancer) tubes. […]

[4] = test system: Ng isolates; assay: nuc-aAST time-course without enhancing step (Example 32); type: cell-based, Neisseria gonorrhoeae; conditions: two PEN-S and two PEN-R Ng isolates; DNase I present; no enhancing step
Procedure: nuc-aAST time-course without enhancing step. Working cultures of Ng isolates were prepared as described in “Ng culture preparation.” Incubation at 37° C. was performed in 100 μL reaction volumes in PCR tube strips on a BioRad C1000 Thermal Cycler. Treated samples consisted of 77.5 μL MHB, 2.5 μL NaHCO3 (200 mM), 5 μL DNase I (2 U/μL), 5 μL PEN (20 μg/mL), and 10 μL working Ng isolate culture. PEN was replaced with NF—H2O in control samples. A 10 μL aliquot of each sample was extracted at 15, 30, 45, 60, 90, and 120 min and diluted 10× in QuickExtract DNA Extraction Solution (Lucigen, Middleton, WI, USA), then heated for 6 min at 65° C. followed by 4 min at 98° C. on a BioRad C1000 Thermal Cycler. All sample handling following antibiotic exposure was performed using a multichannel pipette; qPCR and calculation of % accessibility were performed as described above.
β-lactams should primarily affect peptidoglycan, and should not have a major impact on the outer membrane, which serves as a structural element in Gram-negative bacteria. Therefore, it is expected the primary mechanism behind any increase in accessibility to be cell lysis as a result of exposure to β-lactams, leading to release of genomic DNA to the extracellular environment containing DNase. […]

| Compound | Antibiotic MICs ([1]; isolate ng_1) | Antibiotic MICs ([1]; isolate ng_2) | Antibiotic MICs ([1]; isolate ng_3) | Antibiotic MICs ([1]; isolate ng_4) | Antibiotic MICs ([1]; isolate ng_5) | Antibiotic MICs ([1]; isolate ng_6) | Antibiotic MICs ([1]; isolate ng_12) | Antibiotic MICs ([1]; isolate ng_15) | Antibiotic MICs ([1]; isolate ng_16) | Antibiotic MICs ([1]; isolate ng_17) | Antibiotic MICs ([1]; isolate ng_18) | Antibiotic MICs ([1]; isolate ng_19) | Antibiotic MICs ([1]; isolate ng_20) | Antibiotic MICs ([1]; isolate ng_30) | Antibiotic MICs ([1]; isolate ng_41) | Antibiotic MICs ([1]; isolate ng_44) | further results |
| --- | --- | --- | --- | --- | --- | --- | --- | --- | --- | --- | --- | --- | --- | --- | --- | --- | --- |
| CO/N=C(\C(=O)N[C@@H]1C(=O)N2C(C(=O)O)=C(CSc3nc(=O)c(=O)[nH]n3C)CS[C@H]12)c1csc(N)n1 [CRO, ceftriaxone] | ≤0.008 µg/mL | <0.008 µg/mL | ≤0.008 µg/mL | 0.030 µg/mL | 0.015 µg/mL | ≤0.008 µg/mL | 0.015 µg/mL | ≤0.008 µg/mL | ≤0.008 µg/mL | ≤0.008 µg/mL | 0.030 µg/mL | 0.015 µg/mL | ≤0.008 µg/mL | 0.500 µg/mL | 0.125 µg/mL | ≤0.008 µg/mL | Antibiotic MICs ([1]; isolate ng_15, listed as ceftriaxone): < 0.008 µg/mL; Antibiotic MICs ([1]; isolate ng_17, listed as ceftriaxone): ≤ 0.008 µg/mL; Antibiotic MICs ([1]; isolate ng_30, listed as ceftriaxone): 0.05 µg/mL; Cqs of treated sample compared with control (no ABX) ([2]; ceftriaxone-resistant isolate ng_30, 15-minute incubation with 1% TritonX-100 and DNaseI): not distinguishable from the control; difference in relative concentrations (inaccessible DNA) control vs treated ([2]; ceftriaxone-susceptible isolate ng_3, 15-minute incubation with 1% TritonX-100 and DNaseI): 11 fold; Cq difference between control and antibiotic-treated sample (FIG. 3 bars (a) and (b)) ([2]; ceftriaxone-susceptible isolate ng_3, 15-minute incubation with 1% TritonX-100 and DNaseI in MH media): 3.5 Cq; CT ratio (control/treated, qPCR) ([3]; ceftriaxone-susceptible isolates ng_5, ng_17, ng_19): > 1.5; CT ratio (control/treated, qPCR) ([3]; reduced-susceptibility isolate ng_30): < 1.5 |
| penicillin | 0.250 µg/mL | 0.250 µg/mL | 0.250 µg/mL | 0.500 µg/mL | 1.000 µg/mL | 0.250 µg/mL | 0.500 µg/mL | 0.015 µg/mL | 0.015 µg/mL | 0.060 µg/mL | 2.000 µg/mL | 2.000 µg/mL | 0.060 µg/mL | 1.000 µg/mL | 2.000 µg/mL | 8.000 µg/mL | exposure time at which percentage accessibility differed significantly between susceptible and resistant isolates [4]: 90 min |
